Literature values as cited in patent publication US9233176B2, “Systems and method of delivering fluids to a patient of varying concentration” (Bayer HealthCare LLC, priority 2006, dated 2016).
Like-named read-outs stand apart in the source and are kept apart here.

- iodine flux rate (300 mg I/ml solution, application flow rate 8 ml/s): 2400 mg I/s
- iodine flux rate (370 mg I/ml solution, application flow rate 6 ml/s): 2220 mg I/s
SMILES: COCC(=O)Nc1c(I)c(C(=O)NCC(O)CO)c(I)c(C(=O)N(C)CC(O)CO)c1I (centres unmarked) [Iopromide]
